Experimental data: patent US12564638B2 (SHANGHAITECH UNIVERSITY, priority 2019, dated 2026)
Like-named read-outs stand apart in the source and are kept apart here.

Legend:
Assay type in all cases: cell-based
[1] = tested on: PC9 cells (EGFR Exon 19 del, non-small cell lung cancer cells); experiment: Cell viability assay (WST/CCK8), PC9 cells; conditions: Homo sapiens, PC-9, PC9 (Exon19 Del), 72 hours, read-out: IC50 (half inhibitory concentration)
In short: (§1)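 Plated 3 000 cells/well in complete RPMI1640 the day before dosing; controls were DMSO (negative) and EGFR TKIs (positive).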

[2] = tested on: BT474 cells (HER2 positive breast cancer cells); experiment: Cell viability assay (CCK8), BT474 cells; conditions: Homo sapiens, BT-474, Table 10, BT474, 72 hours, read-out: IC50 (half inhibitory concentration)
Excerpt: The cell lines with abnormal EGFR expression used are as follows: • HCC827 cells (EGFR Exon19 del, non-small cell lung cancer cells); • PC9 cells (EGFR Exon 19 del, non-small cell lung cancer cells); • PC9BracA1 (EGFR Exon 19 del+T790M, non-small cell lung cancer cells) • H1975 (EGFR Exon T790M+L858R mutation, non-small cell lung cancer cell line) • BT474 cells (HER2 positive breast cancer cells)
All of the half inhibitory concentrations (IC50) of these compounds of the present invention were determined with WST reagent from Fuyuan Biotec Company. The specific experiment procedures are as follows: Cancer cells were planted in 96-well-plate at the density of 3 000 cells per well with 100 μL RPMI1640 completed culture medium. In the next day, compounds with indicated concentrations were added to the cells, DMSO was used as the negative control and the EGFR TKIs were used to treat cells as the positive groups. After 72 hours drug treatment, cell viability was measured by using the WST reagent following the instructions. The growth inhibition curve of the compounds on cells were plotted by Prism GraphPad, and the compounds IC50 calculated from it.
The cell viability assays were taken to determine the anti-tumor activity of these indicated compounds in BT474 cells, which can overexpress HER2 protein. The cells were treated with the gradient concentration of these compounds (the maximum concentration: 10 μM; 3-fold dilution ratio, 10 concentration gradients) for 72 hours and then incubated with the CCK8 reagent to determine the cell viability.

[3] = tested on: HCC827 cells (EGFR Exon19 del, non-small cell lung cancer cells); experiment: Cell viability assay (WST/CCK8), HCC827 cells; conditions: Homo sapiens, HCC827, 72 h, HCC827 (Exon19 Del), 72 hours, read-out: IC50 (half inhibitory concentration)
In short: as §1

[4] = Table 6, canertinib-based compounds, WST

Row | SMILES | IC50 ([1]; WST (CCK8)) [nM] | IC50 [2] [nM] | IC50 ([3]; WST (CCK8)) [nM] | IC50 [1, 4] [nM] | IC50 [3, 4] [nM]
1 | COc1cc2ncnc(Nc3ccc(F)c(Cl)c3)c2cc1NC(=O)/C=C/CN1CCC(NC(=O)CCNc2cccc3c2C(=O)N(C2CCC(=O)NC2=O)C3=O)CC1 (centres unmarked) [SIAIS249082, (E)-N-(4-((3-chloro-4-fluorophenyl)amino)-7-methoxyquinazolin-6-yl)-4-(4-(3-((2-(2,6-dioxopiperidin-3-yl)-1,3-dioxoisoindolin-4-yl)amino)propanamido)piperidin-1-yl)but-2-enamide] | 6.1 | 52.5 | 6 |  | 
2 | C=CC(=O)Nc1cc2c(Nc3ccc(F)c(Cl)c3)ncnc2cc1OCCCN1CCN(C(=O)CCC(=O)NCCOCCNc2cccc3c2C(=O)N(C2CCC(=O)NC2=O)C3=O)CC1 (centres unmarked) [SIAIS249099, 4-(4-(3-((6-acrylamido-4-((3-chloro-4-fluorophenyl)amino)quinazolin-7-yl)oxy)propyl)piperazin-1-yl)-N-(2-(2-((2-(2,6-dioxopiperidin-3-yl)-1,3-dioxoisoindolin-4-yl)amino)ethoxy)ethyl)-4-oxobutanamide] |  | 35.6 |  | 29.7 | 11.8
3 | C=CC(=O)Nc1cc2c(Nc3ccc(F)c(Cl)c3)ncnc2cc1OCCCN1CCN(C(=O)CCc2ccc(CCC(=O)N[C@H](C(=O)N3C[C@H](O)C[C@H]3C(=O)NCc3ccc(-c4scnc4C)cc3)C(C)(C)C)cc2)CC1 [SIAIS249102, (2S,4R)-1-((S)-2-(3-(4-(3-(4-(3-((6-acrylamido-4-((3-chloro-4-fluorophenyl)amino)quinazolin-7-yl)oxy)propyl)piperazin-1-yl)-3-oxopropyl)phenyl)propanamido)-3,3-dimethylbutanoyl)-4-hydroxy-N-(4-(4-methylthiazol-5-yl)benzyl)pyrrolidine-2-carboxamide] |  | 3.8 |  | 16 | 25.2
4 | COc1cc2ncnc(Nc3ccc(F)c(Cl)c3)c2cc1NC(=O)/C=C/CN1CCC(N2CCN(C(=O)CCCCCCSc3cccc4c3C(=O)N(C3CCC(=O)NC3=O)C4=O)CC2)CC1 (centres unmarked) [SIAIS262033, (E)-N-(4-((3-chloro-4-fluorophenyl)amino)-7-methoxyquinazolin-6-yl)-4-(4-(4-(7-((2-(2,6-dioxopiperidin-3-yl)-1,3-dioxoisoindolin-4-yl)thio)heptanoyl)piperazin-1-yl)piperidin-1-yl)but-2-enamide] | 3.8 | 0.7 | ~1 |  | 
5 | COc1cc2ncnc(Nc3ccc(F)c(Cl)c3)c2cc1NC(=O)/C=C/CN1CCC(N2CCN(CCCCCSc3cccc4c3CN(C3CCC(=O)NC3=O)C4=O)CC2)CC1 (centres unmarked) [SIAIS262064, (E)-N-(4-((3-chloro-4-fluorophenyl)amino)-7-methoxyquinazolin-6-yl)-4-(4-(4-(5-((2-(2,6-dioxopiperidin-3-yl)-1-oxoisoindolin-4-yl)thio)pentyl)piperazin-1-yl)piperidin-1-yl)but-2-enamide] |  | 1.85 |  |  | 
6 | COc1cc2ncnc(Nc3ccc(F)c(Cl)c3)c2cc1NC(=O)/C=C/CN1CCC(NC(=O)CCCCSc2cccc3c2CN(C2CCC(=O)NC2=O)C3=O)CC1 (centres unmarked) [SIAIS262113, (E)-N-(1-(4-((4-((3-chloro-4-fluorophenyl)amino)-7-methoxyquinazolin-6-yl)amino)-4-oxobut-2-en-1-yl)piperidin-4-yl)-5-((2-(2,6-dioxopiperidin-3-yl)-1-oxoisoindolin-4-yl)thio)pentanamide] | 3.9 | 67.7 | 49 |  | 
7 | COc1cc2ncnc(Nc3ccc(F)c(Cl)c3)c2cc1NC(=O)/C=C/CN1CCC(NC(=O)CCCCCSc2cccc3c2CN(C2CCC(=O)NC2=O)C3=O)CC1 (centres unmarked) [SIAIS262114, (E)-N-(1-(4-((4-((3-chloro-4-fluorophenyl)amino)-7-methoxyquinazolin-6-yl)amino)-4-oxobut-2-en-1-yl)piperidin-4-yl)-6-((2-(2,6-dioxopiperidin-3-yl)-1-oxoisoindolin-4-yl)thio)hexanamide] | 11.9 | 90 | 4 |  | 
8 | COc1cc2ncnc(Nc3ccc(F)c(Cl)c3)c2cc1NC(=O)/C=C/CN1CCC(NCCCCC#Cc2cccc3c2CN(C2CCC(=O)NC2=O)C3=O)CC1 (centres unmarked) [SIAIS262117, (E)-N-(4-((3-chloro-4-fluorophenyl)amino)-7-methoxyquinazolin-6-yl)-4-(4-((6-(2-(2,6-dioxopiperidin-3-yl)-1-oxoisoindolin-4-yl)hex-5-yn-1-yl)amino)piperidin-1-yl)but-2-enamide] | 31.2 | 484 | 16 |  | 
9 | C=CC(=O)Nc1cc2c(Nc3ccc(F)c(Cl)c3)ncnc2cc1OCCCN1CCN(C(=O)CSc2cccc3c2CN(C2CCC(=O)NC2=O)C3=O)CC1 (centres unmarked) [SIAIS262121, N-(4-((3-chloro-4-fluorophenyl)amino)-7-(3-(4-(2-((2-(2,6-dioxopiperidin-3-yl)-1-oxoisoindolin-4-yl)thio)acetyl)piperazin-1-yl)propoxy)quinazolin-6-yl)acrylamide] |  | 5.3 |  | 43.4 | 9.3
10 | COc1cc2ncnc(Nc3ccc(F)c(Cl)c3)c2cc1NC(=O)/C=C/CN1CCC(N2CCN(C(=O)CCCCCNc3cccc4c3CN(C3CCC(=O)NC3=O)C4=O)CC2)CC1 (centres unmarked) [SIAIS337035, (E)-N-(4-((3-chloro-4-fluorophenyl)amino)-7-methoxyquinazolin-6-yl)-4-(4-(4-(6-((2-(2,6-dioxopiperidin-3-yl)-1-oxoisoindolin-4-yl)amino)hexanoyl)piperazin-1-yl)piperidin-1-yl)but-2-enamide] | 6.3 |  | 4.3 |  | 
11 | COc1cc2ncnc(Nc3ccc(F)c(Cl)c3)c2cc1NC(=O)/C=C/CN1CCC(N2CCN(CCCCCCCCCCSc3cccc4c3CN(C3CCC(=O)NC3=O)C4=O)CC2)CC1 (centres unmarked) [SIAIS337039, (E)-N-(4-((3-chloro-4-fluorophenyl)amino)-7-methoxyquinazolin-6-yl)-4-(4-(4-(10-((2-(2,6-dioxopiperidin-3-yl)-1-oxoisoindolin-4-yl)thio)decyl)piperazin-1-yl)piperidin-1-yl)but-2-enamide] | 19.7 |  | 5.7 |  | 

The remaining molecules from weak to strong by IC50 ([1]; WST (CCK8)), led by results:

Row | IC50 ([1]; WST (CCK8)) [nM] | IC50 [2] [nM] | IC50 ([3]; WST (CCK8)) [nM] | IC50 [1, 4] [nM] | IC50 [3, 4] [nM] | SMILES
12 | 3.3 | 83 | 11 |  |  | COc1cc2ncnc(Nc3ccc(F)c(Cl)c3)c2cc1NC(=O)/C=C/CN1CCC(NCCCC#Cc2cccc3c2CN(C2CCC(=O)NC2=O)C3=O)CC1 (centres unmarked) [SIAIS262116, (E)-N-(4-((3-chloro-4-fluorophenyl)amino)-7-methoxyquinazolin-6-yl)-4-(4-((5-(2-(2,6-dioxopiperidin-3-yl)-1-oxoisoindolin-4-yl)pent-4-yn-1-yl)amino)piperidin-1-yl)but-2-enamide]
13 | 1.6 |  | 0.3 |  |  | COc1cc2ncnc(Nc3ccc(F)c(Cl)c3)c2cc1NC(=O)/C=C/CN1CCC(N2CCN(C(=O)CCCCCCCCCCSc3cccc4c3CN(C3CCC(=O)NC3=O)C4=O)CC2)CC1 (centres unmarked) [SIAIS337038, (E)-N-(4-((3-chloro-4-fluorophenyl)amino)-7-methoxyquinazolin-6-yl)-4-(4-(4-(11-((2-(2,6-dioxopiperidin-3-yl)-1-oxoisoindolin-4-yl)thio)undecanoyl)piperazin-1-yl)piperidin-1-yl)but-2-enamide]
14 | 1.3 |  | 0.7 |  |  | COc1cc2ncnc(Nc3ccc(F)c(Cl)c3)c2cc1NC(=O)/C=C/CN1CCC(N2CCN(C(=O)CCCCCCNc3cccc4c3CN(C3CCC(=O)NC3=O)C4=O)CC2)CC1 (centres unmarked) [SIAIS337036, (E)-N-(4-((3-chloro-4-fluorophenyl)amino)-7-methoxyquinazolin-6-yl)-4-(4-(4-(7-((2-(2,6-dioxopiperidin-3-yl)-1-oxoisoindolin-4-yl)amino)heptanoyl)piperazin-1-yl)piperidin-1-yl)but-2-enamide]
15 | 0.8 | 12.3 | 20 |  |  | COc1cc2ncnc(Nc3ccc(F)c(Cl)c3)c2cc1NC(=O)/C=C/CN1CCC(N)CC1 [SIAIS249077, (E)-4-(4-aminopiperidin-1-yl)-N-(4-((3-chloro-4-fluorophenyl)amino)-7-methoxyquinazolin-6-yl)but-2-enamide]
16 | 0.7 |  | 0.3 |  |  | COc1cc2ncnc(Nc3ccc(F)c(Cl)c3)c2cc1NC(=O)/C=C/CN1CCC(N2CCN(C(=O)CCCCCCCCCSc3cccc4c3CN(C3CCC(=O)NC3=O)C4=O)CC2)CC1 (centres unmarked) [SIAIS337037, (E)-N-(4-((3-chloro-4-fluorophenyl)amino)-7-methoxyquinazolin-6-yl)-4-(4-(4-(10-((2-(2,6-dioxopiperidin-3-yl)-1-oxoisoindolin-4-yl)thio)decanoyl)piperazin-1-yl)piperidin-1-yl)but-2-enamide]
